Measurements published in patent US8664220B2, “Polycyclic compounds as lysophosphatidic acid receptor antagonists” (Amira Pharmaceuticals, Inc., priority 2009, dated 2014).

Target: T1, human LPA1 (Homo sapiens, UniProt Q92633)
T1 construct: the full-length cDNA for human LPA1 was obtained by PCR of the reverse transcription reaction; expressed in transfected cells
Assay: LPA1 calcium flux assay
Type: cell-based
Conditions: human LPA1 expressing CHO cells, stimulated with 10 nM LPA; read-out: HLPA1 Ca Flux IC50
Procedure: Establishment of a CHO Cell Line Stably Expressing Human LPA1
A 1.1 kb cDNA encoding the human LPA1 receptor was cloned from human lung.
Human lung RNA (Clontech Laboratories, Inc. USA) was reverse transcribed using the RETROscript kit (Ambion, Inc.) and the full-length cDNA for human LPA1 was obtained by PCR of the reverse transcription reaction. The nucleotide sequence of the cloned human LPA1 was determined by sequencing and confirmed to be identical to the published human LPA1 sequence (An et al. Biochem. Biophys. Res. Commun. 231:619 (1997). The cDNA was cloned into the pcDNA5/FRT expression plasmid and transfected in CHO cells using lipofectamine 2000 (Invitrogen Corp., USA). Clones stably expressing human LPA1 were selected using hygromycin and identified as cells that show Ca-influx in response to LPA.
LPA1 and LPA3 Calcium Flux Assays
Human LPA1 or LPA3 expressing CHO cells are seeded at 20,000-45,000 cells per well in a 96-well poly-D-lysine coated plate one or two days before the assay. Prior to the assay, the cells are washed once with PBS and then cultured in serum-free media overnight. On the day of the assay, a calcium indicator dye (Calcium 4, Molecular Devices) in assay buffer (HBSS with Ca^2+ and Mg^2+ and containing 20 mM Hepes and 0.3% fatty-acid free human serum albumin) is added to each well and incubation continued for 1 hour at 37° C. 10 μl of test compounds in 2.5% DMSO are added to the cells and incubation continued at room temperature for 30 minutes. Cells are the stimulated by the addition of 10 nM LPA and intracellular Ca^2+ measured using the Flexstation 3 (Molecular Devices). IC50s are determined using Graphpad prism analysis of drug titration curves.

T1 sequence (Q92633 whole entry): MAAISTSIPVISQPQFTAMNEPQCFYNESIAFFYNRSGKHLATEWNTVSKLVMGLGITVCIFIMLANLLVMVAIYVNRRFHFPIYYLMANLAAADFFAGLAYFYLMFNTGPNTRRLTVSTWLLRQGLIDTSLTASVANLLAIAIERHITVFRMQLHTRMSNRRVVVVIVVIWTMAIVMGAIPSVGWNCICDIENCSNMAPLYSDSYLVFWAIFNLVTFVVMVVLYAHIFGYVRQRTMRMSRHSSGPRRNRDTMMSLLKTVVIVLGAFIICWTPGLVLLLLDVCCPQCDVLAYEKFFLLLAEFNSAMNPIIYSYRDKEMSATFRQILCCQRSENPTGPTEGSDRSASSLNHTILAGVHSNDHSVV

SMILES | IC50
Cc1noc(-c2ccc(-c3ccc(C4(C(=O)O)CC4)cc3)cc2)c1NC(C)[C@@H]1C[C@H]1c1ccccc1 (relative stereo) [Compound 1-66, 1-(4′-{3-Methyl-4-[trans-1-(2-phenyl-cyclopropyl)-ethylamino]-isoxazol-5-yl}-biphenyl-4-yl)-cyclopropanecarboxylic acid] | < 300 nM
Cc1noc(-c2ccc(-c3ccc(C4(C(=O)O)CC4)cc3)cc2)c1C1CC1C(=O)N(C)[C@H](C)c1ccccc1 (single isomer, unassigned) [Compound 1-26] | 300 to 1000 nM
Cc1noc(-c2ccc(-c3ccc(C4(C(=O)O)CC4)cc3)cc2)c1C1CC1C(=O)N(C)[C@H](C)c1ccccc1 (single isomer, unassigned) [Compound 1-27] | 300 to 1000 nM
Cc1noc(-c2ccc(-c3ccc(C4(C(=O)O)CC4)cc3)cc2)c1C(O)c1nnc(Cc2ccccc2)o1 (single isomer, unassigned) [Compound 1-34, 1-(4′-{4-[(5-Benzyl-[1,3,4]oxadiazol-2-yl)-hydroxy-methyl]-3-methyl-isoxazol-5-yl}-biphenyl-4-yl)-cyclopropanecarboxylic acid] | < 300 nM
Cc1noc(-c2ccc(-c3ccc(C4(C(=O)O)CC4)cc3)cc2)c1C(O)c1nnc(Cc2ccccc2)o1 (single isomer, unassigned) [Compound 1-35, 1-(4′-{4-[(5-Benzyl-[1,3,4]oxadiazol-2-yl)-hydroxy-methyl]-3-methyl-isoxazol-5-yl}-biphenyl-4-yl)-cyclopropanecarboxylic acid] | < 300 nM
Cc1noc(-c2ccc(-c3ccc(C4(C(=O)O)CC4)cc3)cc2)c1C(O)c1cn(Cc2ccccc2)nn1 (single isomer, unassigned) [Compound 1-40, 1-(4′-{4-[(1-Benzyl-1H-[1,2,3]triazol-4-yl)-hydroxy-methyl]-3-methyl-isoxazol-5-yl}-biphenyl-4-yl)-cyclopropanecarboxylic acid] | < 300 nM
Cc1noc(-c2ccc(-c3ccc(C4(CC(=O)O)CC4)cc3)cc2)c1NC(C)c1cc(-c2ccccc2)no1 (single isomer, unassigned) [Compound 1-43, [1-(4′-{3-Methyl-4-[1-(3-phenyl-isoxazol-5-yl)-ethylamino]-isoxazol-5-yl}-biphenyl-4-yl)-cyclopropyl]-acetic acid] | < 300 nM
Cc1noc(-c2ccc(-c3ccc(C4(CC(=O)O)CC4)cc3)cc2)c1NC(C)c1cc(-c2ccccc2)no1 (single isomer, unassigned) [Compound 1-44, [1-(4′-{3-Methyl-4-[1-(3-phenyl-isoxazol-5-yl)-ethylamino]-isoxazol-5-yl}-biphenyl-4-yl)-cyclopropyl]-acetic acid] | < 300 nM
Cc1noc(-c2ccc(-c3ccc(C4(C(=O)NS(C)(=O)=O)CC4)cc3)cc2)c1C(O)c1cn(Cc2ccccc2)nn1 (single isomer, unassigned) [Compound 3-1, N-[1-(4′-{4-[(1-Benzyl-1H-[1,2,3]triazol-4-yl)-hydroxy-methyl]-3-methyl-isoxazol-5-yl}-biphenyl-4-yl)-cyclopropanecarbonyl]-methanesulfonamide] | < 300 nM
Cc1noc(-c2ccc(-c3ccc(C4(C(=O)NS(C)(=O)=O)CC4)cc3)cc2)c1C(O)c1nnc(Cc2ccccc2)o1 (single isomer, unassigned) [Compound 3-2, N-[1-(4′-{4-[(5-Benzyl-[1,3,4]oxadiazol-2-yl)-hydroxy-methyl]-3-methyl-isoxazol-5-yl}-biphenyl-4-yl)-cyclopropanecarbonyl]-methanesulfonamide] | < 300 nM
Cc1noc(-c2ccc(-c3ccc(C4(C(=O)O)CC4)cc3)cc2)c1NC1CCCCC1Cc1ccccc1 (centres unmarked) [Compound 1-1, 1-{4′-[4-(2-Benzyl-cyclohexylamino)-3-methyl-isoxazol-5-yl]-biphenyl-4-yl}-cyclopropanecarboxylic acid] | < 300 nM
Cc1ccccc1N1CCN(C(=O)c2c(C)noc2-c2ccc(-c3ccc(C4(C(=O)O)CC4)cc3)cc2)CC1 [Compound 1-2, 1-{4′-[3-Methyl-4-(4-o-tolyl-piperazine-1-carbonyl)-isoxazol-5-yl]-biphenyl-4-yl}-cyclopropanecarboxylic acid] | 1000 to 50000 nM
Cc1noc(-c2ccc(-c3ccc(C4(C(=O)O)CC4)cc3)cc2)c1C(=O)N1CCN(S(=O)(=O)c2ccc(Cl)c(Cl)c2)CC1 [Compound 1-3, 1-(4′-{4-[4-(3,4-Dichloro-benzenesulfonyl)-piperazine-1-carbonyl]-3-methyl-isoxazol-5-yl}-biphenyl-4-yl)-cyclopropanecarboxylic acid] | 1000 to 50000 nM
Cc1noc(-c2ccc(-c3ccc(C4(C(=O)O)CC4)cc3)cc2)c1C1OC1CCc1ccccc1 (centres unmarked) [Compound 1-4, 1-{4′-[3-Methyl-4-(3-phenethyl-oxiranyl)-isoxazol-5-yl]-biphenyl-4-yl}-cyclopropanecarboxylic acid] | < 300 nM
Cc1noc(-c2ccc(-c3ccc(C4(C(=O)O)CC4)cc3)cc2)c1Cn1ccc(-c2ccccc2)n1 [Compound 1-5, 1-{4′-[3-Methyl-4-(3-phenyl-pyrazol-1-ylmethyl)-isoxazol-5-yl]-biphenyl-4-yl}-cyclopropanecarboxylic acid] | < 300 nM
Cc1noc(-c2ccc(-c3ccc(C4(C(=O)O)CC4)cc3)cc2)c1Cn1cc(-c2ccccc2)nn1 [Compound 1-6, 1-{4′-[3-Methyl-4-(4-phenyl-[1,2,3]triazol-1-ylmethyl)-isoxazol-5-yl]-biphenyl-4-yl}-cyclopropanecarboxylic acid] | < 300 nM
Cc1noc(-c2ccc(-c3ccc(C4(C(=O)O)CC4)cc3)cc2)c1CN1CC(c2ccccc2)CC1=O (centres unmarked) [Compound 1-7, 1-{4′-[3-Methyl-4-(2-oxo-4-phenyl-pyrrolidin-1-ylmethyl)-isoxazol-5-yl]-biphenyl-4-yl}-cyclopropanecarboxylic acid] | < 300 nM
Cc1noc(-c2ccc(-c3ccc(C4(C(=O)O)CC4)cc3)cc2)c1Cc1nnc(-c2ccccc2)o1 [Compound 1-8, 1-{4′-[3-Methyl-4-(5-phenyl[1,3,4]oxadiazol-2-ylmethyl)-isoxazol-5-yl]-biphenyl-4-yl}-cyclopropanecarboxylic acid] | < 300 nM
Cc1noc(-c2ccc(-c3ccc(C4(C(=O)O)CC4)cc3)cc2)c1Cn1cc(Cc2ccccc2)nn1 [Compound 1-9, 1-{4′-[4-(4-Benzyl-[1,2,3]triazol-1-ylmethyl)-3-methyl-isoxazol-5-yl]-biphenyl-4-yl}-cyclopropanecarboxylic acid] | < 300 nM
Cc1noc(-c2ccc(-c3ccc(C4(C(=O)O)CC4)cc3)cc2)c1CN1CCC(c2ccccc2)CC1 [Compound 1-10, 1-{4′-[3-Methyl-4-(4-phenyl-piperidin-1-ylmethyl)-isoxazol-5-yl]-biphenyl-4-yl}-cyclopropanecarboxylic acid] | > 50000 nM
Cc1noc(-c2ccc(-c3ccc(C4(C(=O)O)CC4)cc3)cc2)c1Cn1nc(-c2ccccc2)oc1=N [Compound 1-11, 1-{4′-[4-(2-Imino-5-phenyl-[1,3,4]oxadiazol-3-ylmethyl)-3-methyl-isoxazol-5-yl]-biphenyl-4-yl}-cyclopropanecarboxylic acid] | < 300 nM
Cc1noc(-c2ccc(-c3ccc(C4(C(=O)O)CC4)cc3)cc2)c1CN1C(=O)OC[C@@H]1Cc1ccccc1 [Compound 1-12, 1-{4′-[4-((S)-4-Benzyl-2-oxo-oxazolidin-3-ylmethyl)-3-methyl-isoxazol-5-yl]-biphenyl-4-yl}-cyclopropanecarboxylic acid] | > 50000 nM
Cc1noc(-c2ccc(-c3ccc(C4(C(=O)O)CC4)cc3)cc2)c1Cn1ccc(-c2ccc(Br)cc2)n1 [Compound 1-13, 1-(4′-{4-[3-(4-Bromo-phenyl)-pyrazol-1-ylmethyl]-3-methyl-isoxazol-5-yl}-biphenyl-4-yl)-cyclopropanecarboxylic acid] | 1000 to 50000 nM
Cc1noc(-c2ccc(-c3ccc(C4(C(=O)O)CC4)cc3)cc2)c1CN1C(=O)OC[C@@H]1c1ccccc1 [Compound 1-14, 1-{4′-[3-Methyl-4-((S)-2-oxo-4-phenyl-oxazolidin-3-ylmethyl)-isoxazol-5-yl]-biphenyl-4-yl}-cyclopropanecarboxylic acid] | 1000 to 50000 nM
Cc1noc(-c2ccc(-c3ccc(C4(C(=O)O)CC4)cc3)cc2)c1CN1C(=O)O[C@@H](c2ccccc2)[C@H]1C [Compound 1-15, 1-{4′-[3-Methyl-4-((4R,5S)-4-methyl-2-oxo-5-phenyl-oxazolidin-3-ylmethyl)-isoxazol-5-yl]-biphenyl-4-yl}-cyclopropanecarboxylic acid] | 300 to 1000 nM
Cc1noc(-c2ccc(-c3ccc(C4(C(=O)O)CC4)cc3)cc2)c1CN1C(=O)O[C@H](c2ccccc2)[C@@H]1C [Compound 1-16, 1-{4′-[3-Methyl-4-((4S,5R)-4-methyl-2-oxo-5-phenyl-oxazolidin-3-ylmethyl)-isoxazol-5-yl]-biphenyl-4-yl}-cyclopropanecarboxylic acid] | < 300 nM
